Reference: publication PMC6510822, “Identification of anticancer OATP2B1 substrates by an in vitro triple-fluorescence-based cytotoxicity screen” (Archives of Toxicology, 2019)
Read-outs that look alike come from different tables or passages of the source.

What was measured:
[1] = system: Mes-Sa-B1 cells (Pgp overexpressing); assay: Fluorescence-based cytotoxicity assay, Mes-Sa-B1 mOr
Mes-Sa/Dx5 cells = assay: Fluorescence-based cytotoxicity assay, Mes-Sa/Dx5 eGFP; settings: for RR (Dx5): resistance ratio = IC50 Mes-Sa/Dx5 / IC50 parental Mes-Sa
[2] = system: A431-G2 cells (ABCG2 expressing); assay: Fluorescence-based cytotoxicity assay, ABCG2-expressing A431-G2 mOr
[3] = system: A431-2B1 cells (OATP2B1 expressing); assay: Fluorescence-based cytotoxicity assay, OATP2B1-expressing A431-2B1 mCh
[4] = system: A431-B1 cells (ABCB1/P-glycoprotein expressing); assay: Fluorescence-based cytotoxicity assay, ABCB1-expressing A431-B1 mCh
OATP2B1 [5] = biological target: T1, OATP2B1 (Homo sapiens, UniProt O94956); assay: Inhibition of OATP2B1-mediated Cascade Blue uptake (microplate-based uptake assay, A431-2B1 cells)
T1 sequence (O94956 1-709): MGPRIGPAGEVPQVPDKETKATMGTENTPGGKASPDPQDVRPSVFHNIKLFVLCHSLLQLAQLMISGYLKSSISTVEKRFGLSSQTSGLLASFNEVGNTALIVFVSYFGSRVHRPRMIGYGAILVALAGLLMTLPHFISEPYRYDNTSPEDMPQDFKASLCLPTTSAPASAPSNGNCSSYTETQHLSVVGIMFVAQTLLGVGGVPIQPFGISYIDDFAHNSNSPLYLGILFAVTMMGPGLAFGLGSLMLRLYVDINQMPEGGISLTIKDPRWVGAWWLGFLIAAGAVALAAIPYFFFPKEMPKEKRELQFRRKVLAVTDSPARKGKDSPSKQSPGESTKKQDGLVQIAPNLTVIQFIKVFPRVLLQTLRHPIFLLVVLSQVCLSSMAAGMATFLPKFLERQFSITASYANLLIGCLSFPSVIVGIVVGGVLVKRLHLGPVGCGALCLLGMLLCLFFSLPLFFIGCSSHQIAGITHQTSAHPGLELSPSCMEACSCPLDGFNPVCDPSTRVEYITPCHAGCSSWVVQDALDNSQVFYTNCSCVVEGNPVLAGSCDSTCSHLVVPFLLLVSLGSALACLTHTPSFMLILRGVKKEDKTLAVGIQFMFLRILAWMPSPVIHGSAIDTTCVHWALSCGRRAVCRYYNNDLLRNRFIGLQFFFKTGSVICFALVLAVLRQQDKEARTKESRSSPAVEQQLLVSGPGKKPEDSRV

A431 cells = assay: Fluorescence-based cytotoxicity assay, parental A431 eGFP; settings: Homo sapiens
OATP2B1 [6] = assay: Fluorescence-based cytotoxicity assay, OATP2B1-expressing A431-2B1 mCh; settings: human
[7] = selectivity ratio = IC50 parental Mes-Sa / IC50 Mes-Sa-B1, triple co-culture screen
[8] = selectivity ratio = IC50 parental Mes-Sa / IC50 Mes-Sa/Dx5, triple co-culture screen
[9] = triple co-culture, result in words
[10] = primary screen, co-culture, Fig. 4 inset
[11] = resistance ratio = IC50 Mes-Sa-B1 / IC50 parental Mes-Sa, triple co-culture screen
[12] = resistance ratio = IC50 A431B1 / IC50 parental A431, triple co-culture screen

Compound: Nc1nc2nc[nH]c2c(=S)[nH]1 [NSC-752, Thioguanine]
- SR (Mes-Sa-B1) [1, 7]: 0.41
- SR (Mes-Sa/DX5) (Mes-Sa/Dx5 cells; [8]): 6.93

Compound: S=c1[nH]cnc2nc[nH]c12 [NSC-755, Mercaptopurine]
- SR (Mes-Sa-B1) [1, 7]: 0.39
- SR (Mes-Sa/DX5) (Mes-Sa/Dx5 cells; [8]): 3.87
- Effect of ABCG2 expression on toxicity (A431-G2 vs parental A431) [2, 9]: conferred resistance

Compound: C1CN1c1nc(N2CC2)nc(N2CC2)n1 [NSC-9706, Triethylenemelamine]
- SR (Mes-Sa/DX5) (Mes-Sa/Dx5 cells): 26.62

Compound: O=c1[nH]c(=O)n([C@H]2C[C@H](O)[C@@H](CO)O2)cc1F [NSC-27640, Floxuridin]
- SR (A431-2B1 vs parental A431), screening of DTP Oncology Set IV [3, 10]: 12.31

Compound: CC[C@]1(O)C[C@@H]2CN(CCc3c([nH]c4ccccc34)[C@@](C(=O)OC)(c3cc4c(cc3OC)N(C)[C@H]3[C@@](O)(C(=O)OC)[C@H](OC(C)=O)[C@]5(CC)C=CCN6CC[C@]43[C@@H]65)C2)C1 [NSC-49842, Vinblastine]
- RR (Mes-Sa-B1) [1, 11]: 15.00
- RR (Dx5) (Mes-Sa/Dx5 cells; triple co-culture screen): 11.00
- RR (A431B1) [4, 12]: 244.4

Compound: Nc1ccn([C@@H]2O[C@H](CO)[C@@H](O)[C@@H]2O)c(=O)n1 [NSC-63878, Cytarabine]
- SR (A431-2B1 vs parental A431), screening of DTP Oncology Set IV [3]: > 18.12

Compound: CC[C@]1(O)C[C@H]2CN(CCc3c([nH]c4ccccc34)[C@@](C(=O)OC)(c3cc4c(cc3OC)N(C=O)[C@H]3[C@@](O)(C(=O)OC)[C@H](OC(C)=O)[C@]5(CC)C=CCN6CC[C@]43[C@@H]65)C2)C1 [NSC-67574, Vincristine]
- RR (Mes-Sa-B1) [1, 11]: 38.00
- RR (Dx5) (Mes-Sa/Dx5 cells; triple co-culture screen): 36.00
- RR (A431B1) [4, 12]: 56.8

Compound: CC(=O)O[C@H]1C(=O)[C@@]2(C)[C@H]([C@H](OC(=O)c3ccccc3)[C@]3(O)C[C@H](OC(=O)[C@H](O)[C@@H](NC(=O)c4ccccc4)c4ccccc4)C(C)=C1C3(C)C)[C@]1(OC(C)=O)CO[C@@H]1C[C@@H]2O [NSC-125973, Taxol]
- RR (Mes-Sa-B1) [1, 11]: 593.3
- RR (Dx5) (Mes-Sa/Dx5 cells; triple co-culture screen): 497.67
- RR (A431B1) [4, 12]: 50.91
- Effect of OATP2B1 expression on toxicity (A431-2B1 vs A431 eGFP) ([3]; co-culture screen, result in words): not transported by OATP2B1

Compound: CC/C(=C(\c1ccccc1)c1ccc(OCCN(C)C)cc1)c1ccccc1 [NSC-180973, Tamoxifen]
- SR, monoculture ([3]; IC50 A431 eGFP / IC50 A4312B1 mCh, monoculture): 0.9
- SR (A431-2B1 vs parental A431), screening of DTP Oncology Set IV [3, 10]: 3.49
- IC50 (OATP2B1 [5]): 11 ± 0.7 µM

Compound: Nc1nc(Cl)nc2c1ncn2[C@@H]1O[C@H](CO)[C@@H](O)[C@@H]1F [NSC-606869, Clofarabine]
- SR (Mes-Sa-B1) [1]: 0.91
- SR (Mes-Sa/DX5) (Mes-Sa/Dx5 cells; [8]): 3.44
- Effect of ABCG2 expression on toxicity (A431-G2 vs parental A431) [2]: conferred resistance

Compound: CCC1=C[C@@H]2CN(C1)Cc1c([nH]c3ccccc13)[C@@](C(=O)OC)(c1cc3c(cc1OC)N(C)[C@H]1[C@@](O)(C(=O)OC)[C@H](OC(C)=O)[C@]4(CC)C=CCN5CC[C@]31[C@@H]54)C2 [NSC-608210, Vinorelbine]
- RR (Mes-Sa-B1) [1, 11]: 725.00
- RR (Dx5) (Mes-Sa/Dx5 cells; triple co-culture screen): 861.00
- RR (A431B1) [4, 12]: 232.00

Compound: Nc1ccn([C@@H]2O[C@H](CO)[C@@H](O)C2(F)F)c(=O)n1 [NSC-613327, Gemcitabine]
- SR (A431-2B1 vs parental A431), screening of DTP Oncology Set IV [3, 10]: 16.5

Compound: CCc1c2c(nc3ccc(OC(=O)N4CCC(N5CCCCC5)CC4)cc13)-c1cc3c(c(=O)n1C2)COC(=O)[C@]3(O)CC [NSC-616348, Irinotecan]
- IC50 (A431 cells; A-431, read-out: IC50 (µM) A431 eGFP, co-culture): 13.8 µM
- IC50 (A431 cells; A-431, read-out: IC50 (µM) A431 eGFP, monoculture): 11.1 µM
- Effect of ABCG2 expression on toxicity (A431-G2 vs parental A431) [2]: conferred resistance

Compound: Nc1nc2[nH]cc(CCc3ccc(C(=O)N[C@@H](CCC(=O)O)C(=O)O)cc3)c2c(=O)[nH]1 [NSC-698037, Pemetrexed]
- SR (Mes-Sa-B1) [1, 7]: 1.14
- SR (Mes-Sa/DX5) (Mes-Sa/Dx5 cells; [8]): 3.29

Compound: Cc1nc(Nc2ncc(C(=O)Nc3c(C)cccc3Cl)s2)cc(N2CCN(CCO)CC2)n1 [NSC-732517, Dasatinib]
- RR (Mes-Sa-B1) [1, 11]: 3.147
- RR (Dx5) (Mes-Sa/Dx5 cells; triple co-culture screen): > 3.60
- RR (A431B1) [4]: 11.5
- Effect of ABCG2 expression on toxicity (A431-G2 vs parental A431) [2]: conferred resistance

Compound: Cc1cn(-c2cc(NC(=O)c3ccc(C)c(Nc4nccc(-c5cccnc5)n4)c3)cc(C(F)(F)F)c2)cn1 [NSC-747599, Nilotinib]
- SR (Mes-Sa-B1) [1, 7]: 1.23
- SR (Mes-Sa/DX5) (Mes-Sa/Dx5 cells; [8]): 4.68

Compound: C/C(=C\c1csc(C)n1)[C@@H]1C[C@@H]2O[C@]2(C)CCC[C@H](C)[C@H](O)[C@@H](C)C(=O)C(C)(C)[C@@H](O)CC(=O)N1 [NSC-747973, Ixabepilone]
- RR (Mes-Sa-B1) [1]: >208.3
- RR (Dx5) (Mes-Sa/Dx5 cells; triple co-culture screen): 9.66
- RR (A431B1) [4]: 23.32

Compound: C/C=C1\NC(=O)[C@H]2CSSCC/C=C/[C@H](CC(=O)N[C@H](C(C)C)C(=O)N2)OC(=O)[C@H](C(C)C)NC1=O [NSC-754143, Romidepsin]
- RR (Mes-Sa-B1) [1]: 331.70
- RR (Dx5) (Mes-Sa/Dx5 cells; triple co-culture screen): > 234.15
- RR (A431B1) [4]: > 97

Compound: CS(=O)(=O)c1ccc(C(=O)Nc2ccc(Cl)c(-c3ccccn3)c2)c(Cl)c1 [NSC-755986, Vismodegib]
- SR (Mes-Sa/DX5) (Mes-Sa/Dx5 cells; [8]): > 3.31

Compound: CC(C)C[C@H](NC(=O)[C@H](CCc1ccccc1)NC(=O)CN1CCOCC1)C(=O)N[C@@H](Cc1ccccc1)C(=O)N[C@@H](CC(C)C)C(=O)[C@@]1(C)CO1 [NSC-758252, Carfilzomib]
- RR (Mes-Sa-B1) [1, 11]: 55.50
- RR (Dx5) (Mes-Sa/Dx5 cells; triple co-culture screen): 88.00
- RR (A431B1) [4, 12]: 47.4

Compound: CO[C@H]1C(=O)[C@]2(C)[C@@H](OC)C[C@H]3OC[C@@]3(OC(C)=O)[C@H]2[C@H](OC(=O)c2ccccc2)[C@]2(O)C[C@H](OC(=O)[C@H](O)[C@@H](NC(=O)OC(C)(C)C)c3ccccc3)C(C)=C1C2(C)C [NSC-761432, Cabazitaxel]
- RR (Mes-Sa-B1) [1, 11]: 63.00
- RR (Dx5) (Mes-Sa/Dx5 cells; triple co-culture screen): > 107.00
- RR (A431B1) [4, 12]: 6.00

Compound: CC(C)C[C@H](NC(=O)[C@H](Cc1ccccc1)NC(=O)c1cnccn1)B(O)O [bortezomib]
- RR (Mes-Sa-B1) [1, 11]: 4.3
- RR (Dx5) (Mes-Sa/Dx5 cells; triple co-culture screen): 17
- RR (A431B1) [4, 12]: 2.7

Compound: C[C@@H](Oc1cc(-c2cnn(C3CCNCC3)c2)cnc1N)c1c(Cl)ccc(F)c1Cl [crizotinib]
- RR (Mes-Sa-B1) [1, 11]: 9.9
- RR (Dx5) (Mes-Sa/Dx5 cells; triple co-culture screen): 21.3
- RR (A431B1) [4, 12]: 2.6

Compound: COc1cc2ncnc(Nc3ccc(F)c(Cl)c3)c2cc1OCCCN1CCOCC1 [gefitinib]
- Effect of ABCG2 expression on toxicity (A431-G2 vs parental A431) [2, 9]: conferred resistance

Compound: CS(=O)(=O)CCNCc1ccc(-c2ccc3ncnc(Nc4ccc(OCc5cccc(F)c5)c(Cl)c4)c3c2)o1 [lapatinib]
- Effect of ABCG2 expression on toxicity (A431-G2 vs parental A431) [2, 9]: conferred resistance

Compound: CC[C@@]1(O)C(=O)OCc2c1cc1n(c2=O)Cc2cc3c(CN(C)C)c(O)ccc3nc2-1 [topotecan]
- Effect of ABCG2 expression on toxicity (A431-G2 vs parental A431) [2, 9]: conferred resistance
